What follows are compounds tested against T1, androgen receptor (Homo sapiens, UniProt P10275, T878A) (assay: Androgen receptor degradation assay using Western blot analysis). Details: LNCaP·FGC cells, concentration needed for 50% AR degradation, serial dilutions.
T1 construct: host or cells: LNCaP·FGC cells
T1 sequence (P10275 1-920 T878A): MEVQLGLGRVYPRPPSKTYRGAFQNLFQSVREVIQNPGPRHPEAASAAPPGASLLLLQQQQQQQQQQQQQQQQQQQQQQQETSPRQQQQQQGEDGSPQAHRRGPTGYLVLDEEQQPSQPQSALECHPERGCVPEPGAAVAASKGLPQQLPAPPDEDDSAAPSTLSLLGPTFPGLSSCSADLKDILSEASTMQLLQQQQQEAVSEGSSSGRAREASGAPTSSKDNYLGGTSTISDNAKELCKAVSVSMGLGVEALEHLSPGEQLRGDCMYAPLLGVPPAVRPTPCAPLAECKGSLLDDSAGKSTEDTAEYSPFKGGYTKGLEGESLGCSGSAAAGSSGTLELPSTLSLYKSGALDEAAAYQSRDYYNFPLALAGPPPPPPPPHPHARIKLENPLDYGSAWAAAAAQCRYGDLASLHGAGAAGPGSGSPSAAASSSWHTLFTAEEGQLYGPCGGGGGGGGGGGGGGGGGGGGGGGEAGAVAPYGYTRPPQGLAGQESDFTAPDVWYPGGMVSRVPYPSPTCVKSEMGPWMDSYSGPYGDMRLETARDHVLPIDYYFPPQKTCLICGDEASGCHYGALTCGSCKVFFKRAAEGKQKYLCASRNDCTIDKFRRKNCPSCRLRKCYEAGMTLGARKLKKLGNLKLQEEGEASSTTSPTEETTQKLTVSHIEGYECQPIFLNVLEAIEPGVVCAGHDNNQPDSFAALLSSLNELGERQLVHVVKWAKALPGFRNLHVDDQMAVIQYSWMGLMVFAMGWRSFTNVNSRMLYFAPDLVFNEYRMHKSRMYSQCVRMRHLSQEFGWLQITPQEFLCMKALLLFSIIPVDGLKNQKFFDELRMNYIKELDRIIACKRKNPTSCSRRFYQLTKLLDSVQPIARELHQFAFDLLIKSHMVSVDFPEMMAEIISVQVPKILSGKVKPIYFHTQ
Type: cell-based
Description: LNCaP·FGC cells (Cat. 60088, Bioresource Collection and Research Center, 15 HsinChu City, Taiwan R.O.C.) grown in RPMI 1640 (Cat. 31800022, Thermo Fisher Scientific, Waltham, Massachusetts, United States) medium supplemented with 10% FBS (Cat. 10437028, Thermo Fisher Scientific, Waltham, Massachusetts, United States), 10 mM HEPES (Cat. 15630080, Thermo Fisher Scientific, Waltham, Massachusetts, United States) and 1 mM sodium pyruvate (Cat. 11360070, Thermo 20 Fisher Scientific, Waltham, Massachusetts, United States) were seeded at 2×10^5 cells per well in 24-well tissue culture plates. […] After the treatment, the cells were harvested, washed by PBS, and lysed with RIPA lysis and extraction buffer (Cat. 25 89900, Thermo Fisher Scientific, Waltham, Massachusetts, United States) supplemented with Halt Protease Inhibitor Cocktail (Cat. 78430, Thermo Fisher Scientific, Waltham, Massachusetts, United States) to collect protein samples. Cells not treated with any of the above-mentioned compounds are used as a negative control.
The protein samples were separated by polyacrylamide gel electrophoresis, and then transferred to a piece of Immuno-Blot PVDF membrane (Cat. 1620177, Bio-Rad Laboratories, Hercules, California, United States). The presence of androgen receptor in the protein samples was detected by standard Western blotting procedure using an anti-AR antibody (1:2000 dilution) (Cat. 5153, Cell Signaling Technology Inc., Danvers, Massachusetts, United States) and a goat anti-rabbit HRP-conjugated secondary antibody (1:5000 dilution) (C04003, Croyez Bioscience Co., Ltd., Taipei City, Taiwan R.O.C.). The internal loading control GAPDH was detected using a mouse monoclonal antibody (1:5000) (GTX627408, GeneTex International Corp., HsinChu City, Taiwan R.O.C.) and a goat anti-mouse HRP-conjugated secondary antibody (1:5000 dilution) (C04001, Croyez Bioscience Co., Ltd., Taipei City, Taiwan R.O.C.). Chemiluminescence signals were developed using Clarity Western ECL substrate (Cat. 1705061, Bio-Rad Laboratories, Hercules, California, United States) and detected with digital imager iBright FL1500 (Invitrogen Corp., Carlsbad, California, United States).
Compounds 1-16 were selected and serial diluted (1Ox) with RPMI medium for treating LNCaP·FGC cells. A calibration curve was determined by the serial diluted samples for each compound, and the concentration needed for 50% AR degradation (AR DC50) for each compound was calculated. “Cpd. ID” indicates the compound ID number in Table 1.

Compound | DC50
CCn1c2c(c3ccc(OCCCN4CCN(c5ccc(-c6ccc7c(c6)C(C)(C)C(=O)N7c6ccc(C#N)c(Cl)c6)c(F)n5)CC4)cc31)C(=O)N(C1CCC(=O)NC1=O)C2=O (stereo not shown) [Compound 4] | 200 to 1000 nM
Cn1c2c(c3ccc(N4CCN(CC5CCN(c6ccc(-c7ccc8c(c7)C(C)(C)C(=O)N8c7ccc(C#N)c(Cl)c7)nn6)CC5)CC4)cc31)C(=O)N(C1CCC(=O)NC1=O)C2=O (stereo not shown) [Compound 11] | ≥ 1000 nM
CCn1c2c(c3ccc(C4CCN(CC5CN(c6ccc(-c7ccc8c(c7)C(C)(C)C(=O)N8c7ccc(C#N)c(Cl)c7)c(F)n6)C5)CC4)cc31)C(=O)N(C1CCC(=O)NC1=O)C2=O (stereo not shown) [Compound 3] | 200 to 1000 nM
Cn1c2c(c3ccc(OC4CCN(CC5CN(c6ccc(-c7ccc8c(c7)C(C)(C)C(=O)N8c7ccc(C#N)c(Cl)c7)c(F)n6)C5)CC4)cc31)C(=O)N(C1CCC(=O)NC1=O)C2=O (stereo not shown) [Compound 2] | ≥ 1000 nM
Cn1c2c(c3ccc(N4CCN(CC5CN(c6ccc(-c7ccc8c(c7)C(C)(C)C(=O)N8c7ccc(C#N)c(Cl)c7)c(F)n6)C5)CC4)cc31)C(=O)N(C1CCC(=O)NC1=O)C2=O (stereo not shown) [Compound 1] | 200 to 1000 nM
CCn1c2c(c3ccc(OCCN4CCN(c5ccc(-c6ccc7c(c6)C(C)(C)C(=O)N7c6ccc(C#N)c(Cl)c6)c(F)n5)CC4)cc31)C(=O)N(C1CCC(=O)NC1=O)C2=O (stereo not shown) [Compound 15] | 200 to 1000 nM
Cn1c2c(c3ccc(C4CCN(CC5CCN(c6ccc(-c7ccc8c(c7)C(C)(C)C(=O)N8c7ccc(C#N)c(Cl)c7)c(F)n6)CC5)CC4)cc31)C(=O)N(C1CCC(=O)NC1=O)C2=O (stereo not shown) [Compound 8] | 200 to 1000 nM
CCn1c2c(c3ccc(N4CCN(CC5CN(c6ccc(-c7ccc8c(c7)C(C)(C)C(=O)N8c7ccc(C#N)c(Cl)c7)c(F)n6)C5)CC4)cc31)C(=O)N(C1CCC(=O)NC1=O)C2=O (stereo not shown) [Compound 12] | < 200 nM
Cn1c2c(c3ccc(N4CCN(CC5CCN(c6ccc(-c7ccc8c(c7)C(C)(C)C(=O)N8c7ccc(C#N)c(Cl)c7)c(F)n6)CC5)CC4)cc31)C(=O)N(C1CCC(=O)NC1=O)C2=O (stereo not shown) [Compound 5] | ≥ 1000 nM
CCn1c2c(c3ccc(N4CCN(CC5CCN(c6ccc(-c7ccc8c(c7)C(C)(C)C(=O)N8c7ccc(C#N)c(Cl)c7)c(F)n6)CC5)CC4)cc31)C(=O)N(C1CCC(=O)NC1=O)C2=O (stereo not shown) [Compound 9] | 200 to 1000 nM
